# Test results taken from patent publication US20040038216A1, “Method for the structural determination of ligands bound to macromolecular targets by nuclear magnetic resonance” (priority 2002, published 2004).
# Marks after values point to notes of the source that are not given here.
# What was measured:
# Bcl-xL [1] = molecular target: Bcl-xL (Homo sapiens, UniProt Q07817); assay: NMR-based screening; assay type: binding; details: independently determined
# Experimental: (§1) 500 uL of the ligand solution was transferred to each of 8 NMR tubes (Wilmad). The protein solutions were then added to the NMR tubes to a final protein concentration of 40 uM in the following manner: Sample 1: unlabeled Bcl-xL; Sample 2: U-^2H-Bcl-xL; Sample 3: U-^2H-{^1H-R}-Bcl-xL; Sample 4: U-^2H-{^1H-Y}-Bcl-xL; Sample 5: U-^2H-{^1H-L}-Bcl-xL; Sample 6: U-2H-{^1H-I}-Bcl-xL; Sample 7: U-^2H-{^1H-M}-Bcl-xL; Sample 8: No protein.
# Bcl-xL [2] = molecular target: T1, Bcl-xL (Homo sapiens, UniProt Q07817, DEL45-84); assay: STD-NMR (saturation transfer difference) spectra on Bcl-xL/ligand complexes; assay type: binding
# T1 construct: deletion mutant of Bcl-xL (that lacks the putative carboxy-terminal transmembrane region and residues 49-88) was used; His tag (C); made in house; host or cells: E. coli BL21(DE3)
# Experimental: A sample of unlabeled Bcl-xL as well as samples of perdeuterated Bcl-xL that were selectively protonated at the specific amino acids Arg, Tyr, Leu, Ile, and Met were prepared in accordance with the procedures of Example 1. Samples of 200 uM 4-(4-fluorophenyl)benzoic acid (3, Array), [drawing 1]
# as §1
# STD-NMR spectra (Mayer and Meyer, J. Am. Chem. Soc. 2001, 123, 6108-6117) were determined on each of the eight samples. All NMR experiments were performed at 300K on a Bruker Avance DRX500 system equipped with a CryoProbe. The pulse sequence for the ID STD-NMR spectra was identical to that used by Mayer and Meyer (2001) except that a CPMG T2-filter was used instead of a T1p-filter to remove background protein resonances. Subtraction of the on- and off-resonance spectra was performed internally and a WATERGATE sequence was used for suppression of the residual solvent signal. On-resonance irradiation of the protein was performed by using a train of Gauss-shaped pulses of 2.5 ms length separated by a 2.5 ms delay, and alternating on-resonance irradiation was applied at 0.8 and 3.0 ppm. Off-resonance irradiation was applied at −10.0 ppm. 280 shaped pulses were used in the pulse train, leading to a total saturation time of 1.4 s. All spectra were acquired with a 100 ms T2-filter, 1024 complex points, 1024 scans, a ^1H sweep width of 8333 Hz, and a total recycle time of 2.0 s.
# All NMR spectra were processed and analyzed on Silicon Graphics computers using standard protocols well-known in the art. STD-NMR spectra for biaryl 3 in the presence of unlabeled Bcl-xL (Sample 1), U-^2H-Bcl-xL (Sample 2), and no protein are shown in FIG. 5. […] Therefore, the signal intensity for each resonance of the biaryl 3 in the presence of unlabeled and perdeuterated protein was taken as the maximum and minimum intensity, respectively, for the NOE in the presence of the selectively protonated samples. The intensity of the NOEs could then be calculated using the following equation, [formula]
# where I(norm) is the normalized intensity in the STD-NMR spectrum for a given biaryl resonance, and I(SL), I(^2H), and I(^1H) are the intensities of the resonance in the presence of the selectively protonated, perdeuterated, and unlabeled protein, respectively. The normalized NOE intensities can be visualized by simple subtraction of the STD-NMR spectrum of the ligand in the presence of deuterated protein from each of the selectively protonated samples. In these spectra, it is clearly seen that an arginine residue is in close contact with the benzoic acid portion of 3 (magnetization transfer to HA and HB/C), but not the fluorophenyl portion. It is also clear that a tyrosine and leucine residue is in contact with the fluorophenyl portion of 3 (magnetization transfer to HD and HB/C), but not the benzoic acid portion. Spectra shown in (E) and (F) indicate that no portion of the biaryl is in contact with any isoleucine or methionine residues.
# These NOE intensities were then converted into distance restraints for use in structural calculations in the following manner. For any given amino acid type and ligand resonance, normalized NOE intensities less than 5% were treated as having no interaction. Therefore, distances between that ligand atom and all protons on all amino acids of that specific type were set at greater than 5 Å. For NOE intensities greater than 15%, ambiguous distance restraints were assigned. […]
# [3] = ligand proton HA, Sample 1 Unlabeled Bcl-xL
# [4] = ligand proton HA, Sample 2 U-2H-Bcl-xL
# [5] = ligand proton HD, Sample 1 Unlabeled Bcl-xL
# [6] = ligand proton HD, Sample 2 U-2H-Bcl-xL
# [7] = ligand protons HB/HC, Sample 1 Unlabeled Bcl-xL
# [8] = ligand protons HB/HC, Sample 2 U-2H-Bcl-xL
# T1 sequence (Q07817 with tags, fused parts or gaps DEL45-84 limits assumed): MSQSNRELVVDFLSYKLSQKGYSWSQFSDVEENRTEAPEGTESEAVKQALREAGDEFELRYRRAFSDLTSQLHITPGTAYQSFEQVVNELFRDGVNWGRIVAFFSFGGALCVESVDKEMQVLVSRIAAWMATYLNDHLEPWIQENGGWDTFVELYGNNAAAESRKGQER
# Bcl-xL (Homo sapiens, UniProt Q07817), sequence (Q07817 whole entry): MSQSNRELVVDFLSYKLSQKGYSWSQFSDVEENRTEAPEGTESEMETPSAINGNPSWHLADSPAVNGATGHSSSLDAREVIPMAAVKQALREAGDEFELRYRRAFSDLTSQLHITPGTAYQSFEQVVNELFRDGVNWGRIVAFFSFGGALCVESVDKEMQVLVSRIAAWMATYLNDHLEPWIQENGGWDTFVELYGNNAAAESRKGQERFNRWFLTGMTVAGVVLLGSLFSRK
smiles,measurement,setting,value
"O=C(O)c1ccc(-c2ccc(F)cc2)cc1 [biaryl 3, 4-(4-fluorophenyl)benzoic acid]",binding to Bcl-xL (NMR-based screening),Bcl-xL [1],ligand for Bcl-xL
same,Normalized NOE intensity,"Bcl-xL [2]; HA protons, in the presence of U-2H-{1H-Y}-Bcl-xL",3%
same,Normalized NOE intensity,"Bcl-xL [2]; HD protons, in the presence of U-2H-{1H-Y}-Bcl-xL",22%
same,Distance restraint derived from the NOE intensity data,"Bcl-xL [2]; ligand proton HA to arginine protons, Sample 3 U-2H-{1H-R}-Bcl-xL",<4^a Å
same,Distance restraint derived from the NOE intensity data,"Bcl-xL [2]; ligand proton HA to isoleucine protons, Sample 6 U-2H-{1H-I}-Bcl-xL",>5 Å
same,Distance restraint derived from the NOE intensity data,"Bcl-xL [2]; ligand proton HA to methionine protons, Sample 7 U-2H-{1H-M}-Bcl-xL",>5 Å
same,Distance restraint derived from the NOE intensity data,"Bcl-xL [2]; ligand proton HA to tyrosine protons, Sample 4 U-2H-{1H-Y}-Bcl-xL",>5 Å
same,Actual NOE intensity,Bcl-xL [2]; [3],(175)
same,Normalized NOE intensity,Bcl-xL [2]; [3],100^a
same,Actual NOE intensity,Bcl-xL [2]; [4],(17)
same,Normalized NOE intensity,Bcl-xL [2]; [4],0
same,Actual NOE intensity,"Bcl-xL [2]; ligand proton HA, Sample 3 U-2H-{1H-R}-Bcl-xL",(57)
same,Actual NOE intensity,"Bcl-xL [2]; ligand proton HA, Sample 4 U-2H-{1H-Y}-Bcl-xL",(22)
same,Actual NOE intensity,"Bcl-xL [2]; ligand proton HA, Sample 5 U-2H-{1H-L}-Bcl-xL",(28)
same,Actual NOE intensity,"Bcl-xL [2]; ligand proton HA, Sample 6 U-2H-{1H-I}-Bcl-xL",(18)
same,Actual NOE intensity,"Bcl-xL [2]; ligand proton HA, Sample 7 U-2H-{1H-M}-Bcl-xL",(23)
same,Distance restraint derived from the NOE intensity data,"Bcl-xL [2]; ligand proton HD to leucine protons, Sample 5 U-2H-{1H-L}-Bcl-xL",<3 Å
same,Actual NOE intensity,Bcl-xL [2]; [5],(167)
same,Normalized NOE intensity,Bcl-xL [2]; [5],100
same,Actual NOE intensity,Bcl-xL [2]; [6],(28)
same,Normalized NOE intensity,Bcl-xL [2]; [6],0
same,Actual NOE intensity,"Bcl-xL [2]; ligand proton HD, Sample 3 U-2H-{1H-R}-Bcl-xL",(40)
same,Actual NOE intensity,"Bcl-xL [2]; ligand proton HD, Sample 4 U-2H-{1H-Y}-Bcl-xL",(59)
same,Actual NOE intensity,"Bcl-xL [2]; ligand proton HD, Sample 5 U-2H-{1H-L}-Bcl-xL",(93)
same,Actual NOE intensity,"Bcl-xL [2]; ligand proton HD, Sample 6 U-2H-{1H-I}-Bcl-xL",(40)
same,Actual NOE intensity,"Bcl-xL [2]; ligand proton HD, Sample 7 U-2H-{1H-M}-Bcl-xL",(45)
same,Distance restraint derived from the NOE intensity data,"Bcl-xL [2]; ligand protons HB/HC to arginine protons, Sample 3 U-2H-{1H-R}-Bcl-xL",<5 Å
same,Distance restraint derived from the NOE intensity data,"Bcl-xL [2]; ligand protons HB/HC to isoleucine protons, Sample 6 U-2H-{1H-I}-Bcl-xL",>5 Å
same,Distance restraint derived from the NOE intensity data,"Bcl-xL [2]; ligand protons HB/HC to leucine protons, Sample 5 U-2H-{1H-L}-Bcl-xL",<5 Å
same,Distance restraint derived from the NOE intensity data,"Bcl-xL [2]; ligand protons HB/HC to methionine protons, Sample 7 U-2H-{1H-M}-Bcl-xL",>5 Å
same,Actual NOE intensity,Bcl-xL [2]; [7],(200)
same,Normalized NOE intensity,Bcl-xL [2]; [7],100
same,Actual NOE intensity,Bcl-xL [2]; [8],(32)
same,Normalized NOE intensity,Bcl-xL [2]; [8],0
same,Actual NOE intensity,"Bcl-xL [2]; ligand protons HB/HC, Sample 3 U-2H-{1H-R}-Bcl-xL",(70)
same,Actual NOE intensity,"Bcl-xL [2]; ligand protons HB/HC, Sample 4 U-2H-{1H-Y}-Bcl-xL",(49)
same,Actual NOE intensity,"Bcl-xL [2]; ligand protons HB/HC, Sample 5 U-2H-{1H-L}-Bcl-xL",(71)
same,Actual NOE intensity,"Bcl-xL [2]; ligand protons HB/HC, Sample 6 U-2H-{1H-I}-Bcl-xL",(30)
same,Actual NOE intensity,"Bcl-xL [2]; ligand protons HB/HC, Sample 7 U-2H-{1H-M}-Bcl-xL",(30)
